What was measured:
[1] = tested on: mouse bone marrow mesenchymal stem cell line (MSC-1 cells), PDGFRα-positive; experiment: Migration assay (Boyden / 48-well chemotaxis chamber) on bone marrow mesenchymal stem cell line MSC-1; assay type: cell-based
How it was run: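 Mouse MSC-1 cells (3×10^6 cells/ml in D-MEM with 10% FBS) loaded in the upper wells of a 48-well Boyden chamber with 8 μm polycarbonate membrane; mouse HMGB1 peptides or HEK293-made HMGB1 in lower wells at 100 μg/ml, 5 μM or 10 μM; PBS as negative control. After 4 h at 37° C, migrated cells were Diff-Quik stained.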

[2] = tested on: CD11b-negative, PDGFRα-positive cells (primary cultured bone marrow mesenchymal cells); experiment: Migration assay on primary cultured CD11b-negative, PDGFRα-positive bone marrow cells; assay type: cell-based, mouse; details: peptide produced in HEK293, 40 μg/ml, FIG. 5
Method: Thigh and tibial bones were excised from donor mice: B6.129S4-Pdgfratm11(EGFP)Sor/J (PDGFRα-GFP Mouse). After removing attached muscles and other tissues, the bones were crushed finely and incubated with 0.2% collagenase (Roche, REF: 10103586001)/DMEM/2% FBS(filtrated) at 37° C. for 40 minutes. Then, cell aggregates and muscle tissues were removed by filtration through a 40-μm nylon mesh. After centrifugation at 1200 rpm for 10 minutes, the resulting cells were suspended in αMEM containing 10% FBS and 1% P/S and cultured in an incubator under 5% CO2 at 37° C. until they reached 100% confluence. The cells were harvested and the following experiment was carried out according to the protocol attached to CD11b MicroBeads (Miltenyi Biotec; order No: 130-049-601). The cells were adjusted to 10^7 cells/90 μl with PBS(−), and CD11b MicroBeads were added at 10 μl/10^7 cells. After 15 minutes of reaction at 4° C., the cells were washed twice and suspended in 500 μl of PBS(−). The tube was placed in AutoMACS separator and the cells were collected according to the separation program “Depletes”. The collected cells were plated onto an adherent cell culture dish. After adhesion, GFP fluorescence was observed using a fluorescence microscope. The above-described peptide 1-44 produced in HEK293 was tested for the migration-promoting activity using CD11b-negative cells. […]

mouse skin fibroblasts = experiment: Migration assay on mouse skin fibroblasts; assay type: cell-based; details: synthetic peptide, PDGFRα-positive cells, FIG. 13A
Method: Newborn C57/B16 mice were euthanized using isoflurane and carbon dioxide inhalation. Then, the mice were washed thoroughly with EtOH and PBS. The skin together with dermis was exfoliated and the blood was washed off with PBS. The exfoliated skin was cut into fine pieces with scissors. The skin pieces were placed in DMEM (Nacalai tesque, Cat: 08458-45) containing 0.2% collagenase (Roche, REF: 10103586001) and shaken at 37° C. for 30 minutes. The reaction was stopped with DMEM/30% FBS/P/S. The resulting cells were centrifuged at 160×G for 5 minutes and plated in a 10-cm dish. The cells were cultured under 5% CO2 at 37° C. and the medium was changed every three days. The cells were passaged when they reached 80% to 90% confluency. The cells were harvested from the dish using trypsin. After inactivation of trypsin with D-MEM containing 10% FBS, a synthetic peptide consisting of the amino acid sequence of positions 1 to 34 (1-34) was assessed for migration-promoting activity according to the migration assay method described above.

mouse keratinocytes = experiment: Migration assay on mouse keratinocytes; assay type: cell-based; details: synthetic peptide, PDGFRα-negative cells, FIG. 12A
Method: Newborn C57/B16 mice were euthanized using isoflurane and carbon dioxide inhalation. Then, the mice were washed thoroughly with EtOH and PBS. The skin together with dermis was exfoliated and the blood was washed off with PBS. The exfoliated skin was placed in Dispase I (Sanko Junyaku Co., Cat: GD81060) at 4° C. for 16 hours. The epidermis and dermis were detached with forceps, and the epidermis was placed in trypsin (Nacalai tesque, Cat: 3554-64) at 37° C. for 10 minutes. When white turbidity began to appear, the reaction was stopped with S-MEM (GIBCO, Cat: 11380)/15% FBS(Ca-)P/S. The resulting cells were centrifuged at 160×G for 5 minutes, and suspended in CnT-07 medium (CELLnTEC, Cat: CnT-07 BM) and plated in a 10-cm dish. The cells were cultured under 5% CO2 at 37° C. and the medium was changed every three days. The cells were passaged when they reached 80% to 90% confluency. The cells were harvested from the dish using trypsin. After inactivation of trypsin with DMEM containing 10% FBS, a synthetic peptide consisting of the amino acid sequence of positions 1 to 34 (1-34) was examined for migration-promoting activity according to the migration assay method described above.

[3] = 2 μM, area of migrated cells by image analysis, FIG. 10

Substance: 1-44: peptide of positions 1 to 44 of mouse HMGB1, produced using HEK293 (MGKGDPKKPRGKMSSYAFFVQTCREEHKKKHPDASVNFSEFSKK; UniProt P63158 1-44, looked up, fragment)
- migration-promoting activity relative to the full-length HMGB1, compared per equal mass [1, 3]: about 8 times
- migration-promoting activity relative to the full-length HMGB1, compared per equal mole [1, 3]: about 1.6 times
- migration-promoting activity ([1]; protein and peptides produced using HEK293 (mouse HMGB1), 50 μg/ml, 4 h, FIG. 2A): showed migration-promoting activity
- migration-promoting activity [2]: strong migration-promoting activity

Substance: (1-34): synthetic peptide consisting of the amino acid sequence from positions 1 to 34 of HMGB1 (MGKGDPKKPRGKMSSYAFFVQTCREEHKKKHPDA; UniProt P09429 1-34, looked up, fragment)
- migration-promoting activity on skin fibroblasts (mouse skin fibroblasts): exhibited migration-promoting activity
- migration-promoting activity on mouse keratinocytes (mouse keratinocytes): did not show migration-promoting activity
- migration-promoting activity ([1]; synthetic peptides, 100 μg/ml, positive control 1-215(HEK), FIG. 7): activity comparable to or higher than that of the positive control

— patent publication US10550165B2, “Peptide for inducing regeneration of tissue and use thereof” (STEMRIM INC., priority 2011, dated 2020)
